Experimental findings from patent US20240293164A1, “METHODS AND COMPOSITIONS OF CRYOABLATION WITH DRUG DELIVERY” (Theromics, Inc., priority 2023, published 2024) are described below.

This data set is described as follows: differential scanning calorimetry (DSC), heat flow as a function of temperature. In kind it is physicochemical. On the procedure:
This is also an exothermic event. Upon heating, the cryoablation gel melts at about −10° C.
An exothermic event begins as the sample is cooled to about −18° C.; and the phase changing event is more than 10° C. wide. This process is more than 4×more exothermic than the crystallization of cryoablation gel, showing that the water crystallization process is much more chaotic with high entropy and takes a while to reach an ordered state. On the contrary, the cryoablation gel is a more highly ordered substance and the crystallization event produces less energy due to the relatively lower entropy.

Regarding `O` [water], under “cooling”, the “temperature of phase change (exothermic event) on cooling” value was “about −18 °C” and the “width of phase changing event” value was “more than 10 °C”. Further, the “exothermicity of crystallization relative to cryoablation gel” value (water versus cryoablation gel) is “more than 4 ×”.
